Assay results published in patent US11339136B2 (Novartis AG, priority 2016, dated 2022).

Target: T1, hNLRP3 (Homo sapiens, UniProt Q96P20)
T1 construct: THP-1 cells were purchased from the American Type Culture Collection; host or cells: THP-1 cells, PMA-differentiated
Experiment: IL-1β production in PMA-differentiated THP-1 cells stimulated with gramicidin
Type: cell-based
Settings: gramicidin 5 μM, IL-1β in supernatant, Table 1
Experimental: Bioassay: IL-1β Production in PMA-Differentiated THP-1 Cells Stimulated with Gramicidin. Procedure 1:
Cell culture—THP-1 cells were purchased from the American Type Culture Collection and sub-cultured according to instructions from the supplier. Prior to experiments, cells were cultured in RPMI 1640 containing 10% heat inactivated FBS, penicillin (100 units/ml) and streptomycin (100 μg/ml), and maintained in log phase prior to experimental setup. Prior to the experiment THP-1 were treated with PMA (Phorbol 12-myristate 13-acetate) (10 μg/ml) for 24 hours. The day of the experiment the media was removed and attaching cells were treated with trypsin for 2 minutes, cells were then collected, washed with PBS (phosphate buffer saline), spin down, resuspended in 2% heat inactivated FBS with RPMI at a concentration of 1×10^6 cells/ml, and 100 ul was plated in a 96 well plate. Cells were incubated with compounds for 1 hours and then stimulated with Gramicidin (5 μM) (Enzo) for 2 hours. Cell free supernatant was collected and the production of IL-1β was evaluated by ELISA. Compounds were dissolved in dimethyl sulfoxide (DMSO) and added to the culture medium to achieve desired concentration (e.g. 100, 30, 10, 3, 1, 0.3 or 0.1 μM). A vehicle only control was run concurrently with each experiment. Final DMSO concentration was 1%.
THP-1 cells were purchased from the American Type Culture Collection and sub-cultured according to instructions from the supplier. Prior to experiments, cells were cultured in complete RPMI 1640 (containing 10% heat inactivated FBS, penicillin (100 units/ml) and streptomycin (100 μg/ml)), and maintained in log phase prior to experimental setup. Prior to the experiment THP-1 were treated with PMA (Phorbol 12-myristate 13-acetate) (20 ng/ml) for 16-18 hours. On the day of the experiment the media was removed and adherent cells were detached with trypsin for 5 minutes. Cells were then harvested, washed with complete RPMI 1640, spun down, resuspended in RPMI 1640 (containing 2% heat inactivated FBS, penicillin (100 units/ml) and streptomycin (100 μg/ml). The cells were plated in a 384-well plate at a density of 50,000 cells/well (final assay volume 50 μl). Compounds were dissolved in dimethyl sulfoxide (DMSO) and added to the culture medium to achieve desired concentration (e.g. 100, 33, 11, 3.7, 1.2, 0.41, 0.14, 0.046, 0.015, 0.0051, 0.0017 μM). Cells were incubated with compounds for 1 hour and then stimulated with gramicidin (5 μM) (Enzo) for 2 hours. Cell free supernatant was collected and the production of IL-1β was evaluated by HTRF (cisbio). A vehicle only control was run concurrently with each experiment. Final DMSO concentration was 0.38%.

T1 sequence (Q96P20 whole entry): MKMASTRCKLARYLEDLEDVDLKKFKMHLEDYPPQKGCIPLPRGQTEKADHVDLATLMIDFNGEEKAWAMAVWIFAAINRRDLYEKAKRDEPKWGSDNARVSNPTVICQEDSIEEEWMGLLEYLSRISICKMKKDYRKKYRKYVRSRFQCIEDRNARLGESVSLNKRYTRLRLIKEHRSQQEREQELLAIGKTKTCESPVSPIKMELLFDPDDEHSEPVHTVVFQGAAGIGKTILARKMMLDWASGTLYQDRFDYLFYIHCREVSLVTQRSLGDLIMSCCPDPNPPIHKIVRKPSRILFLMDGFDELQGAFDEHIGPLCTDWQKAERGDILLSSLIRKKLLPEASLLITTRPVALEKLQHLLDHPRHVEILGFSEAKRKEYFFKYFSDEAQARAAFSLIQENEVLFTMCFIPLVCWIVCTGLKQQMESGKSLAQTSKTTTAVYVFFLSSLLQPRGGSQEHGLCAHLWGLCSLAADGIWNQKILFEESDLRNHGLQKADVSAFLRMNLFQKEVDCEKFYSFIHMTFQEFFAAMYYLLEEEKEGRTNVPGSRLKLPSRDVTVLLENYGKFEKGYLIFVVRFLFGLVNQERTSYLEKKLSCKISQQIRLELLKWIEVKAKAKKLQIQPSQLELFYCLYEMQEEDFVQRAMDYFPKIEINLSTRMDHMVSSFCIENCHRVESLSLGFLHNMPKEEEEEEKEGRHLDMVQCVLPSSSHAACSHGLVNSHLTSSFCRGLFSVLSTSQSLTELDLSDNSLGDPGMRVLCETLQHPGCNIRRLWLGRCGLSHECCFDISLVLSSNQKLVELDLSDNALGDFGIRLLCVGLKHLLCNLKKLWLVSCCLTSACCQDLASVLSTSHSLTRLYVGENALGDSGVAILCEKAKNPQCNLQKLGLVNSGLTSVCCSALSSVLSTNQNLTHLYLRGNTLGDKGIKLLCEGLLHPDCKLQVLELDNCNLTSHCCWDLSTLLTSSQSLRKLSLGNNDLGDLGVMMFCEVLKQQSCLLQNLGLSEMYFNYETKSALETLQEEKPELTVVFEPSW

IC50, < 1 µM:
CC(C)(O)c1coc(S(=O)(=O)NC(=O)Nc2c3c(c(C#N)c4c2CCC4)CCC3)c1 [Compound 105, N-(8-cyano-1,2,3,5,6,7-hexahydros-indacen-4-ylcarbamoyl)-4-(2-hydroxypropan-2-yl)furan-2-sulfonamide]
CC(C)c1cc(C#N)cc(C(C)C)c1NC(=O)NS(=O)(=O)c1cc(C(C)(C)O)co1 [Compound 104, N-(4-cyano-2,6-diisopropylphenyl-carbamoyl)-4-(2-hydroxypropan-2-yl)furan-2-sulfonamide]

Same assay, conditions: gramicidin 5 μM, IL-1β in supernatant, Table 2

IC50, 1 to 5 µM:
CCc1cc(F)cc(CC)c1NC(=O)NS(=O)(=O)c1cc(C(C)(C)O)cs1 [Compound 161, N-(2,6-diethyl-4-fluorophenylcarbamoyl)-4-(2-hydroxypropan-2-yl)thiophene-2-sulfonamide]
CCc1ccc2c(c1NC(=O)NS(=O)(=O)c1ncc(C(C)(C)O)s1)CCC2 [Compound 165, N-(5-ethyl-2,3-dihydro-1H-inden-4-ylcarbamoyl)-5-(2-hydroxypropan-2-yl) thiazole-2-sulfonamide]
CC(C)c1cc(C#N)cc(C(C)C)c1NC(=O)NS(=O)(=O)c1ccc(C2(O)CC2)s1 [Compound 194, N-(4-cyano-2,6-diisopropylphenylcarbamoyl)-5-(1-hydroxycyclopropyl) thiophene-2-sulfonamide]
CCc1ccc2c(c1NC(=O)NS(=O)(=O)c1cc(C(C)(C)O)cs1)CCC2 [Compound 166, N-(5-ethyl-2,3-dihydro-1H-inden-4-ylcarbamoyl)-4-(2-hydroxypropan-2-yl)thiophene-2-sulfonamide]
CC(C)(O)c1csc(S(=O)(=O)NC(=O)Nc2cccc3c2CCC3)c1 [Compound 191, N-(2,3-dihydro-1H-inden-4-ylcarbamoyl)-4-(2-hydroxypropan-2-yl) thiophene-2-sulfonamide]
CC(C)c1ccc(F)c(C(C)C)c1NC(=O)NS(=O)(=O)c1cc(C(C)(C)O)c(Cl)s1 [Compound 250, 5-chloro-N-(3-fluoro-2,6-diisopropylphenylcarbamoyl)-4-(2-hydroxypropan-2-yl)thiophene-2-sulfonamide]
Cc1sc(S(=O)(=O)NC(=O)Nc2c(C(C)C)ccc(F)c2C(C)C)cc1C(C)(C)O [Compound 154, N-(3-fluoro-2,6-diisopropylphenylcarbamoyl)-4-(2-hydroxypropan-2-yl)-5-methylthiophene-2-sulfonamide]
CC(C)c1ccc(C#N)c(C(C)C)c1NC(=O)NS(=O)(=O)c1ncc(C(C)(C)O)s1 [Compound 263, N-(3-cyano-2,6-diisopropylphenylcarbamoyl)-5-(2-hydroxypropan-2-yl) thiazole-2-sulfonamide]
CCc1cc(Cl)cc(CC)c1NC(=O)NS(=O)(=O)c1cc(C(C)(C)O)cs1 [Compound 171, N-(4-chloro-2,6-diethylphenylcarbamoyl)-4-(2-hydroxypropan-2-yl) thiophene-2-sulfonamide]
CC(C)c1cccc(C(C)C)c1NC(=O)NS(=O)(=O)c1ccc(C2(O)CC2)s1 [Compound 201, N-(2,6-diisopropylphenylcarbamoyl)-5-(1-hydroxycyclopropyl) thiophene-2-sulfonamide]
CC(C)c1cncc(C(C)C)c1NC(=O)NS(=O)(=O)c1ncc(C(C)(C)O)s1 [Compound 138]
CC(C)c1cc(Cl)cc(C(C)C)c1NC(=O)NS(=O)(=O)c1nc(C(C)(C)O)cs1 [Compound 147, N-(4-chloro-2,6-diisopropylphenylcarbamoyl)-4-(2-hydroxypropan-2-yl)thiazole-2-sulfonamide]
Cc1cc(C(C)C)c(NC(=O)NS(=O)(=O)c2cnc(C(C)(C)O)s2)c(C(C)C)c1 [Compound 272]
CC(C)c1ccc(Cl)c(C(C)C)c1NC(=O)NS(=O)(=O)c1cnc(C(C)(C)O)s1 [Compound 271]
COc1ccc2c(c1NC(=O)NS(=O)(=O)c1ncc(C(C)(C)O)s1)CCC2 [Compound 182, 5-(2-hydroxypropan-2-yl)-N-(5-methoxy-2,3-dihydro-1H-inden-4-ylcarbamoyl)thiazole-2-sulfonamide]
Cc1nc(S(=O)(=O)NC(=O)Nc2c(C(C)C)cc(Cl)cc2C(C)C)sc1C(C)(C)O [Compound 151, N-(4-chloro-2,6-diisopropylphenylcarbamoyl)-5-(2-hydroxypropan-2-yl)-4-methylthiazole-2-sulfonamide]
CC(C)c1cc(C#N)cc(C(C)C)c1NC(=O)NS(=O)(=O)c1nc(C(C)(C)O)cs1 [Compound 146, N-(4-cyano-2,6-diisopropylphenylcarbamoyl)-4-(2-hydroxypropan-2-yl)thiazole-2-sulfonamide]
CC(C)c1ccc(F)c(C(C)C)c1NC(=O)NS(=O)(=O)c1ccc(C2(O)CC2)s1 [Compound 195, N-(3-fluoro-2,6-diisopropylphenylcarbamoyl)-5-(1-hydroxycyclopropyl) thiophene-2-sulfonamide]
CC(C)(O)c1cnc(S(=O)(=O)NC(=O)Nc2c3c(c(C#N)c4c2CCC4)CCC3)s1 [Compound 220, N-(8-cyano-1,2,3,5,6,7-hexahydros-indacen-4-ylcarbamoyl)-5-(2-hydroxypropan-2-yl)thiazole-2-sulfonamide]
CC(C)c1cccc(C(C)C)c1NC(=O)NS(=O)(=O)c1ccc(C(C)(C)O)s1 [Compound 188, N-(2,6-diisopropylphenylcarbamoyl)-5-(2-hydroxypropan-2-yl) thiophene-2-sulfonamide]

IC50, < 1 µM:
N#Cc1c2c(c(NC(=O)NS(=O)(=O)c3cc(C4(O)CC4)cs3)c3c1CCC3)CCC2 [Compound 223, N-(8-cyano-1,2,3,5,6,7-hexahydros-indacen-4-ylcarbamoyl)-4-(1-hydroxycyclo-propyl)thiophene-2-sulfonamide]
Cc1sc(S(=O)(=O)NC(=O)Nc2c(C(C)C)cc(C#N)cc2C(C)C)cc1C(C)(C)O [Compound 162, N-(4-cyano-2,6-diisopropylphenyl-carbamoyl)-4-(2-hydroxypropan-2-yl)-5-methylthiophene-2-sulfonamide]
CC(C)c1ccc(F)c(C(C)C)c1NC(=O)NS(=O)(=O)c1cc(C2(O)CC2)cs1 [Compound 218, N-(3-fluoro-2,6-diisopropylphenyl-carbamoyl)-4-(1-hydroxycyclo-propyl)thiophene-2-sulfonamide]
CC(C)c1cc(C#N)cc(C(C)C)c1NC(=O)NS(=O)(=O)c1ncc(C(C)(C)O)s1 [Compound 226, N-(4-cyano-2,6-diisopropylphenyl-carbamoyl)-5-(2-hydroxypropan-2-yl)thiazole-2-sulfonamide]

IC50, 5 to 15 µM:
CC(C)c1ccc(F)c(C(C)C)c1NC(=O)NS(=O)(=O)c1ncc(C2(O)CCCCC2)s1 [Compound 167, N-(3-fluoro-2,6-diisopropylphenylcarbamoyl)-5-(1-hydroxycyclohexyl) thiazole-2-sulfonamide]
CC(C)c1ccc(F)c(C(C)C)c1NC(=O)NS(=O)(=O)c1ncc(C2(O)CCC2)s1 [Compound 169, N-(3-fluoro-2,6-diisopropylphenylcarbamoyl)-5-(1-hydroxycyclobutyl) thiazole-2-sulfonamide]
Cc1nc(S(=O)(=O)NC(=O)Nc2c(C(C)C)cc(F)cc2C(C)C)sc1C(C)(C)O [Compound 152, N-(4-fluoro-2,6-diisopropylphenylcarbamoyl)-5-(2-hydroxypropan-2-yl)-4-methylthiazole-2-sulfonamide]
CC(C)c1ccc(F)c(C(C)C)c1NC(=O)NS(=O)(=O)c1cnc(C(C)(C)O)s1 [Compound 274]
CC(C)c1ccc(Cl)c(C(C)C)c1NC(=O)NS(=O)(=O)c1cc(C(C)(C)O)c(Cl)s1 [Compound 252, 5-chloro-N-(3-chloro-2,6-diisopropylphenylcarbamoyl)-4-(2-hydroxypropan-2-yl)thiophene-2-sulfonamide]
Cc1sc(S(=O)(=O)NC(=O)Nc2c(C(C)C)ccc(C#N)c2C(C)C)cc1C(C)(C)O [Compound 264, N-(3-cyano-2,6-diisopropylphenylcarbamoyl)-4-(2-hydroxypropan-2-yl)-5-methylthiophene-2-sulfonamide]
